According to the NIST ThermoML archive (doi:10.1016/j.jct.2015.11.009):

Assay: xn = mol fraction of the nth substance listed
Conditions: 100 kPa, Liquid; for speed of sound: Frequency=3 MHz, Sing-around technique in a fixed-path interferometer; for mass density: Vibrating tube method

O=C1CCCN1 [2-pyrrolidinone] + CCCCn1cc[n+](C)c1.F[B-](F)(F)F
Conditions | mass density, 298.15 K [kg/m3] | mass density, 303.15 K [kg/m3] | mass density, 308.15 K [kg/m3] | mass density, 313.15 K [kg/m3] | speed of sound, 298.15 K [m/s] | speed of sound, 303.15 K [m/s] | speed of sound, 308.15 K [m/s] | speed of sound, 313.15 K [m/s] | speed of sound, 318.15 K [m/s]
x2 = 0 | 1107.16 | 1103.07 | 1098.99 | 1094.9 | 1634.4 | 1618 | 1601.6 | 1585.4 | 1570.4
x2 = 0.102 | 1128.93 | 1124.98 | 1121.03 | 1117.09 | 1625.5 | 1610.2 | 1595.5 | 1580.5 | 1566
x2 = 0.1951 | 1143.99 | 1139 | 1135.12 | 1131.25 | 1618 | 1604.1 | 1589.2 | 1575 | 1560.9
x2 = 0.3046 | 1155.01 | 1151.24 | 1147.43 | 1143.62 | 1608.3 | 1594.5 | 1580.2 | 1566.5 | 1553.8
x2 = 0.3886 | 1163.44 | 1159.65 | 1155.87 | 1152.11 | 1601 | 1587.5 | 1573.8 | 1560.7 | 1547.8
x2 = 0.5262 | 1173.25 | 1169.51 | 1165.8 | 1162.12 | 1590.7 | 1578.1 | 1565.4 | 1552.7 | 1541.2
x2 = 0.6185 | 1179.38 | 1175.68 | 1172.01 | 1168.35 | 1584.4 | 1572.5 | 1560.1 | 1547.9 | 1536.4
x2 = 0.69 | 1183.57 | 1179.91 | 1176.26 | 1172.63 | 1579.5 | 1567.2 | 1554.7 | 1542.5 | 1530.7
x2 = 0.7844 | 1188.69 | 1185.05 | 1181.42 | 1177.81 | 1574.3 | 1562.2 | 1550 | 1537.9 | 1526.2
x2 = 0.8861 | 1193.47 | 1189.85 | 1186.26 | 1182.68 | 1569.2 | 1557.3 | 1545.4 | 1533.5 | 1521.9
